Marks after values point to notes of the source that are not given here.
Legend:
Format in all cases: in vivo, SD rats
[1] = test system: MIA-induced model of osteoarthritis and inflammatory pain in rats; assay: Electronic von Frey test, various GLP-1R agonists, MIA-induced model (Example 7, cycle 1)
Procedure: (§1) Seven groups comprising 8 SD rats per group were allocated for this study performed in 2 cycles (4 SD rats/cycle). Chemically-induced OA disease was performed on six out of seven groups by injecting intra-articularly (IA) in the right knee joint 3 mg of MIA in 30 μL on day 1. The control group (sham/vehicle control) received 30 μL of saline IA in the right knee joint. […] All groups 31M-37M received 1 IA injection of either saline (group 31M) or MIA (groups 32M to 37M) on day 1 and the treatment injection on day 3. During the study, body weight measurements (twice a week) and von Frey tests using electronic von Frey apparatus (on day 2, 7, for C1) and von Frey filaments (on day 10, 18, 24 and 30 for Cl, and on day 2, 7, 10, 18, 24 and 30 for C2) were performed. Group allocation was performed on day 2, based on von Frey results. Knee harvesting was performed for optional analyses at study termination at day 32.
(§2) A solution comprising dulaglutide is prepared from the product Trulicity®. Trulicity® is a commercial dulaglutide drug. Trulicity® is supplied as a “ready to use” solution at 4.5 mg/0.50 mL. It will be diluted in the appropriate volume of vehicle (NaCl 0.9%) for injection into knee joint of 270 μg in 30 μL per rat for group 33M.
(§3) Bydureon® is supplied as a “ready to use” solution at 2 mg/0.65 mL. It will be diluted in the appropriate volume of vehicle (NaCl 0.9%) for injection into knee joint of 92.31 μg in 30 μL per rat for group 34M.
(§4) Bydureon Bcise® is supplied as a “ready to use” solution at 2.35 mg/mL. It will be diluted in the appropriate volume of vehicle (NaCl 0.9%) for injection into knee joint of 70.6 μg in 30 μL per rat for group 35M.
(§5) A solution comprising lixisenatide is prepared from the product Adlyxin®. Adlyxin® is a commercial lixisenatide drug. Adlyxin® is supplied as a “ready to use” solution at 100 μg/mL. It will be diluted in the appropriate volume of vehicle (NaCl 0.9%) for injection into knee joint of 3 μg in 30 μL per rat for group 36M.
(§6) It will be diluted in the appropriate volume of vehicle (NaCl 0.9%) for injection into knee joint of 180 μg in 30 μL per rat for group 37M.
(§7) 56 male SD rats aged 9 weeks were anesthetized via a chamber induction technique using inhalation anesthesia (Isoflurane at 5%). During the procedure, the animal was maintained under Isoflurane at a level between 1.5 and 3% with an air flow rate of 1-2 liters/minute. After induction of anesthesia, the right hind limb skin surface was clipped free of hair using electric animal clippers. After shaving, the area surrounding the knee joint was wiped with alcohol. A volume of 30 μL containing 3 mg MIA was injected intra-articularly (IA) in the knee joint through the patellar tendon. A 29-gauge, 0.5-inch needle that fitted with cannulation tubing was used such that only 3 to 4 mm of the needle was allowed to puncture the joint. After injection, the knee was massaged to ensure even distribution of the solution. Animals were injected once on day 1 (groups 32M, 33M, 34M, 35M, 36M, 37M). For group 31M (sham control), 30 μL of injectable saline was injected into knee joint.
(§8) Von Frey test in the rats following MIA injection was conducted according to 4P-Pharma's proceedings “Mechanical Neuropathic Pain Evaluation (electronic Von Frey)” and to 4P-Pharma's proceedings “Mechanical Neuropathic Pain Evaluation (Von Frey)”. Rats were placed individually in the designated transparent Plexiglas chambers and allowed to acclimate for 10-15 min. Withdrawal response to mechanical stimulation was determined using electronic von Frey apparatus (BIO-EVF5, Bioseb) with a 0.5 mm diameter tip placed on the stimulator handle applied from underneath the cage through openings (12×12 mm) in the plastic mesh floor or with von Frey filaments (Bio-VF-M, Bioseb). The withdrawal response in gram-force for each rat was calculated from three trials for von Frey apparatus and once with von Frey filaments.

[2] = test system: MIA-induced model of osteoarthritis and inflammatory pain in rats; assay: Von Frey filaments test, various GLP-1R agonists, MIA-induced model (Example 7)
Procedure: as §1, §2, §3, §4, §5, §6, §7, §8

[3] = test system: MIA-induced model of osteoarthritis and inflammatory pain in rats; assay: Electronic and equivalent von Frey scores normalized to vehicle group (Example 7)
Procedure: Allodynia in rats following OA induction on day 1 was evaluated on day 2 and on day 7 using both Electronic (for cycle 1) and von Frey filaments (for cycle 2). Both tests are reliable and valid for the assessment of the mechanical sensitivity in the ipsilateral hind paw of rats. Additionally, von Frey filament score can be transposed approximately to an equivalent electronic von Frey score (theorical pressure in grams/mm^2). To assure the obtained results, we performed a test using both von Frey filaments and Electronic von Frey apparatus on three rats from three different groups (31M, 32M and 37M).
Equivalent electronic von Frey score was calculated using the “Aesthesio Precision Tactile sensory data chart” from the results obtained with von Frey filaments. Thus, to have a more representative vision of the results obtained in previous experiments using the electronic von Frey apparatus, we combine both the electronic von Frey scores obtained from Cycle 1 (Day 2 and 7) and the equivalent score calculated from the results obtained with the von Frey filaments for Cycle 1 (from day 10) and Cycle 2.

[4] = 270 μg IA once on day 3, D2 (baseline before treatment)
[5] = 180 μg IA once on day 3, D2 (baseline before treatment)
[6] = 3 μg IA once on day 3, D2 (baseline before treatment)

With dulaglutide as the substance, how does the “right paw withdrawal threshold, Electronic von Frey (mean)” value [1, 4] read?
The value was 30.03 grams.

What about the “right paw withdrawal threshold, Electronic von Frey (mean)” value ([1]; 270 μg IA once on day 3, D7) of the same substance?
The value was 50.98 grams.

What about the “right paw withdrawal threshold, von Frey filaments (mean)” value [2, 4] of the same substance?
The value was 2.28^$$$ grams.

And the “right paw withdrawal threshold, von Frey filaments (mean)” value ([2]; 270 μg IA once on day 3, D7)?
The value was 2.85 grams.

And the “right paw withdrawal threshold, von Frey filaments (mean)” value ([2]; 270 μg IA once on day 3, D10)?
Its value is 4.75*** grams.

And the “right paw withdrawal threshold, von Frey filaments (mean)” value ([2]; 270 μg IA once on day 3, D18)?
Its value is 6.50*** grams.

And the “right paw withdrawal threshold, von Frey filaments (mean)” value ([2]; 270 μg IA once on day 3, D24)?
The value was 7.00*** grams.

And the “right paw withdrawal threshold, von Frey filaments (mean)” value ([2]; 270 μg IA once on day 3, D30)?
The value was 8.25*** grams.

liraglutide was tested. Which “right paw withdrawal threshold, Electronic von Frey (mean)” value [1, 5] did it give?
The value was 32.88 grams.

What about the “right paw withdrawal threshold, Electronic von Frey (mean)” value ([1]; 180 μg IA once on day 3, D7) of the same substance?
Its value is 63.60 grams.

And the “von Frey score normalized to vehicle group (31M)” value ([3]; 180 μg IA (group 37M), at day 10, level maintained for 20 days)?
The value was 70%.

What about the “right paw withdrawal threshold, von Frey filaments (mean)” value [2, 5] of the same substance?
Its value is 1.60^$$$ grams.

And the “right paw withdrawal threshold, von Frey filaments (mean)” value ([2]; 180 μg IA once on day 3, D7)?
Its value is 8.00*** grams.

What about the “right paw withdrawal threshold, von Frey filaments (mean)” value ([2]; 180 μg IA once on day 3, D10) of the same substance?
The value was 9.63*** grams.

And the “right paw withdrawal threshold, von Frey filaments (mean)” value ([2]; 180 μg IA once on day 3, D18)?
The value was 11.63*** grams.

What about the “right paw withdrawal threshold, von Frey filaments (mean)” value ([2]; 180 μg IA once on day 3, D24) of the same substance?
The value was 10.25*** grams.

And the “right paw withdrawal threshold, von Frey filaments (mean)” value ([2]; 180 μg IA once on day 3, D30)?
Its value is 9.00*** grams.

Which “right paw withdrawal threshold, Electronic von Frey (mean)” value [1, 6] does the source give for lixisenatide here?
The value was 33.55 grams.

And the “right paw withdrawal threshold, Electronic von Frey (mean)” value ([1]; 3 μg IA once on day 3, D7)?
The value was 55.15 grams.

And the “von Frey score normalized to vehicle group (31M)” value ([3]; 3 μg IA (group 36M), raised to and kept)?
Its value is 60%.

And the “right paw withdrawal threshold, von Frey filaments (mean)” value [2, 6]?
The value was 1.30^$$$ grams.

What about the “right paw withdrawal threshold, von Frey filaments (mean)” value ([2]; 3 μg IA once on day 3, D7) of the same substance?
Its value is 5.00** grams.

What about the “right paw withdrawal threshold, von Frey filaments (mean)” value ([2]; 3 μg IA once on day 3, D10) of the same substance?
The value was 7.63*** grams.

And the “right paw withdrawal threshold, von Frey filaments (mean)” value ([2]; 3 μg IA once on day 3, D18)?
Its value is 7.75*** grams.

What about the “right paw withdrawal threshold, von Frey filaments (mean)” value ([2]; 3 μg IA once on day 3, D24) of the same substance?
Its value is 7.25*** grams.

And the “right paw withdrawal threshold, von Frey filaments (mean)” value ([2]; 3 μg IA once on day 3, D30)?
Its value is 8.88*** grams.

Reference: patent publication US20240293514A1, “PHARMACEUTICAL COMPOSITIONS COMPRISING GLP-1R AGONISTS” (4MOVING BIOTECH, priority 2021, published 2024)
